Like-named read-outs stand apart in the source and are kept apart here.
Tested on: panel of 55 breast cancer cell lines
Assay: Cell growth inhibition assay (Cell Titer Glo, 72 h, 9 doses; GI50, TGI, LC50)
Format: cell-based, human
Conditions: Homo sapiens, read-out: GI50 (converted)

Measured: GI50

CN(Cc1cnc2nc(N)nc(N)c2n1)c1ccc(C(=O)N[C@@H](CCC(=O)O)C(=O)O)cc1 [Methotrexate]
0.02 µM: MDA-MB-436, cell line MDAMB436
0.0339 µM: cell line LY2
0.0575 µM: MCF7, cell line MCF7
0.0794 µM: CAMA-1, CAMA1 cell line, censored GI50 values | CAMA-1, cell line CAMA1
0.0155 µM: HCC1954, HCC1954 cell line, censored GI50 values | HCC1954, cell line HCC1954
0.024 µM: HCC1143, HCC1143 cell line, censored GI50 values | HCC1143, cell line HCC1143
331 µM: BT-20, cell line BT20 | BT-474, cell line BT474 | BT-549, cell line BT549 | HCC38, cell line HCC38 | HCC1395, cell line HCC1395 | HCC1428, cell line HCC1428 | HCC1937, cell line HCC1937 | MDA-MB-231, cell line MDAMB231 | MDA-MB-415, cell line MDAMB415 | MDA-MB-453, cell line MDAMB453 | SUM52PE, cell line SUM52PE | SUM149PT, cell line SUM149PT | SUM185PE, cell line SUM185PE | SUM225CWN, cell line SUM225CWN | SUM-159-PT, cell line SUM159PT | ZR-75B, cell line ZR75B | cell line HCC2185 | cell line MDAMB134V | cell line SUM1315MO
0.692 µM: SK-BR-3, cell line SKBR3
0.0661 µM: ZR-75-1, cell line ZR751
166 µM: 600MPE cell line, censored GI50 values | AU565, AU565 cell line, censored GI50 values | AU565, cell line AU565 | HCC1187, HCC1187 cell line, censored GI50 values | HCC1187, cell line HCC1187 | HCC1419, HCC1419 cell line, censored GI50 values | HCC1419, cell line HCC1419 | HCC1806, HCC1806 cell line, censored GI50 values | HCC1806, cell line HCC1806 | MDA-MB-157, cell line MDAMB157 | cell line 600MPE
0.0204 µM: HCC202, cell line HCC202
0.0309 µM: HCC1500, HCC1500 cell line, censored GI50 values | HCC1500, cell line HCC1500
0.0324 µM: MDA-MB-468, cell line MDAMB468
0.158 µM: MDA-MB-361, cell line MDAMB361
